Usually IC50 stands for the concentration that inhibits the measured activity by half.

The first assay has as its system GM01896 cells (MPS II dermal fibroblasts). Kind of assay: Assay 1: MPS cellular assay, MPS II (heparan sulfate disaccharide biomarkers by LC-MS). The conditions noted are these: Assay 1 for MPS II, heparan sulfate disaccharide biomarkers (I2a4, I2a6, I2S0 and/or I2S6), read-out: IC50 Range. The class given is cell-based, human. The gist of the method:
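Heparan sulfate disaccharide biomarkers quantified by LC-MS after heparinase I/II/III digestion and isotopic aniline labelling, using GM01896 MPS II fibroblasts exposed to compound (at or below 30 μM, 4-21 days). Values given as IC50 by curve fitting; cell viability checked with alamar blue or ATP.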
Take `CN(C)CCn1cnc2cc(-c3cc(Nc4ccc(Cl)cc4)nc(N4CCOCC4)n3)ccc21` [[2-(5-{6-[(4-chlorophenyl)amino]-2-morpholin-4-ylpyrimidin-4-yl}benzimidazolyl)ethyl]dimethylamine]: the IC50 was in the range of 1000 to 5000 nM.

Turning to `Cn1nc2ccc(Nc3cc(-c4ccc5cnn(C)c5c4)nc(N4CCOCC4)n3)cc2n1` [[6-(1-methyl(1H-indazol-6-yl))-2-morpholin-4-ylpyrimidin-4-yl](2-methyl(2-hydrobenzotriazol-5-yl))amine], the IC50 lay in the range of 1000 to 5000 nM.

As to `Cn1ncc2ccc(-c3cc(Nc4ccc(-n5cccn5)cc4)nc(N4CCOCC4)n3)cc21` [[6-(1-methyl(1H-indazol-6-yl))-2-morpholin-4-ylpyrimidin-4-yl](4-pyrazolylphenyl)amine], the IC50 was under 500 nM.

The same assay, now with this note: Homo sapiens, Fibroblast, Assay 1 for MPS II, heparan sulfate disaccharide biomarkers (I2a4, I2a6, I2S0 and/or I2S6), read-out: IC50 Range.
For `Clc1ccc(Nc2cc(-c3ccc4cnn(CCN5CCCC5)c4c3)nc(N3CCOCC3)n2)cc1` [(4-chlorophenyl){2-morpholin-4-yl-6-[1-(2-pyrrolidinylethyl)(1H-indazol-6-yl)]pyrimidin-4-yl}amine], the 50% inhibitory concentration (IC50) lay within 1000 to 5000 nM.

With `Clc1ccc(Nc2cc(-c3ccc4c(Cl)nn(CCCN5CCOCC5)c4c3)nc(N3CCOCC3)n2)cc1` [{6-[3-chloro-1-(3-morpholin-4-ylpropyl)(1H-indazol-6-yl)]-2-morpholin-4-ylpyrimidin-4-yl}(4-chlorophenyl)amine], the IC50 lay in the range of 1000 to 5000 nM.

In the case of `Cc1nn(C)c2cc(-c3cc(Nc4ccc(-c5cocn5)cc4)nc(N4CCOCC4)n3)ccc12` [[6-(1,3-dimethyl(1H-indazol-6-yl))-2-morpholin-4-ylpyrimidin-4-yl](4-(1,3-oxazol-4-yl)phenyl)amine], the IC50 was under 500 nM.

On to `CNC(=O)c1ccc(Nc2cc(-c3ccc4c(cnn4CCCN4CCOCC4)c3)nc(N3CCOCC3)n2)cc1` [N-methyl[4-({2-morpholin-4-yl-6-[1-(3-morpholin-4-ylpropyl)(1H-indazol-5-yl)]pyrimidin-4-yl}amino)phenyl]carboxamide], for which the IC50 is 1000 to 5000 nM.

As for `Cn1cnc2ccc(-c3cc(Nc4ccc(Cl)cc4)nc(N4CCOCC4)n3)cc21` [(4-chlorophenyl)[6-(1-methylbenzimidazol-6-yl)-2-morpholin-4-ylpyrimidin-4-yl]amine], the IC50 is under 500 nM.

For the compound `Cn1ncc2ccc(-c3cc(Nc4cccc(-c5ncco5)c4)nc(N4CCOCC4)n3)cc21` [[6-(1-methyl(1H-indazol-6-yl))-2-morpholin-4-ylpyrimidin-4-yl](3-(1,3-oxazol-2-yl)phenyl)amine], the half-inhibitory concentration (IC50) lay in the range of 1000 to 5000 nM.

Regarding `Cc1nn(C)c2cc(-c3cc(Nc4ccc(-c5cc[nH]c5)cc4)nc(N4CCOCC4)n3)ccc12` [[6-(1,3-dimethyl(1H-indazol-6-yl))-2-morpholin-4-ylpyrimidin-4-yl](4-pyrrol-3-ylphenyl)amine], the IC50 is 500 to 1000 nM.

As for `Clc1ccc(Nc2cc(-c3ccc4cnn(C5CCC5)c4c3)nc(N3CCOCC3)n2)cc1` [(4-chlorophenyl)[6-(1-cyclobutyl(1H-indazol-6-yl))-2-morpholin-4-ylpyrimidin-4-yl]amine], the half-inhibitory concentration (IC50) was 1000 to 5000 nM.

In the case of `Cc1nn(C)c2cc(-c3cc(Nc4ccc(-c5cnn[nH]5)cc4)nc(N4CCOCC4)n3)ccc12` [(4-(1H-1,2,3-triazol-5-yl)phenyl)[6-(1,3-dimethyl(1H-indazol-6-yl))-2-morpholin-4-ylpyrimidin-4-yl]amine], the 50% inhibitory concentration (IC50) was 500 to 1000 nM.

`Cc1nn(C)c2cc(-c3cc(Nc4ccc(-c5ccn[nH]5)cc4)nc(N4CCOCC4)n3)ccc12` [[6-(1,3-dimethyl(1H-indazol-6-yl))-2-morpholin-4-ylpyrimidin-4-yl](4-pyrazol-5-ylphenyl)amine]: the IC50 is under 500 nM.

For `Cc1nc2ccc(-c3cc(Nc4ccc(Cl)cc4)nc(N4CCOCC4)n3)cc2n1C1CCC1` [(4-chlorophenyl)[6-(1-cyclobutyl-2-methylbenzimidazol-6-yl)-2-morpholin-4-ylpyrimidin-4-yl]amine], the IC50 fell in the range of 1000 to 5000 nM.

`Cn1ncc2ccc(-c3cc(Nc4ccc(-c5ncco5)cc4)nc(N4CCOCC4)n3)cc21` [[6-(1-methyl(1H-indazol-6-yl))-2-morpholin-4-ylpyrimidin-4-yl](4-(1,3-oxazol-2-yl)phenyl)amine]: the IC50 is 500 to 1000 nM.

For `CN(C)CCn1cc2ccc(-c3cc(Nc4ccc(Cl)cc4)nc(N4CCOCC4)n3)cc2n1` [[2-(6-{6-[(4-chlorophenyl)amino]-2-morpholin-4-ylpyrimidin-4-yl}(2H-indazol-2-yl))ethyl]dimethylamine], the half-maximal inhibitory concentration (IC50) fell in the range of 500 to 1000 nM.

Regarding `Cc1nc2ccc(-c3cc(Nc4ccc(Cl)cc4)nc(N4CCOCC4)n3)cc2n1C1COC1` [(4-chlorophenyl)[6-(2-methyl-1-oxetan-3-ylbenzimidazol-6-yl)-2-morpholin-4-ylpyrimidin-4-yl]amine], the IC50 was under 500 nM.

As to `Cn1nc(NCCCCN2CCCC2)c2ccc(-c3cc(Nc4ccc(Cl)cc4)nc(N4CCOCC4)n3)cc21` [(4-chlorophenyl)(6-{1-methyl-3-[(4-pyrrolidinylbutyl)amino](1H-indazol-6-yl)}-2-morpholin-4-ylpyrimidin-4-yl)amine], the IC50 lay within 500 to 1000 nM.

As for `CNC(=O)c1ccc(Nc2cc(-c3ccc4ncn(C)c4c3)nc(N3CCOCC3)n2)cc1` [N-methyl(4-{[6-(1-methylbenzimidazol-6-yl)-2-morpholin-4-ylpyrimidin-4-yl]amino}phenyl)carboxamide], the IC50 was under 500 nM.

`COCCn1cnc2ccc(-c3cc(Nc4ccc(C(=O)OC)cc4)nc(N4CCOCC4)n3)cc21` [methyl 4-({6-[1-(2-methoxyethyl)benzimidazol-6-yl]-2-morpholin-4-ylpyrimidin-4-yl}amino)benzoate]: the IC50 is under 500 nM.

For the compound `CNC(=O)c1ccc(Nc2cc(-c3ccc4cnn(CCOC)c4c3)nc(N3CCOCC3)n2)cc1` [[4-({6-[1-(2-methoxyethyl)(1H-indazol-6-yl)]-2-morpholin-4-ylpyrimidin-4-yl}amino)phenyl]-N-methylcarboxamide], the 50% inhibitory concentration (IC50) is under 500 nM.

Consider `Cc1nc2ccc(-c3cc(Nc4ccc(Cl)cc4)nc(N4CCOCC4)n3)cc2n1CCCN1CCCC1` [(4-chlorophenyl){6-[2-methyl-1-(3-pyrrolidinylpropyl)benzimidazol-6-yl]-2-morpholin-4-ylpyrimidin-4-yl}amine], for which the IC50 lay in the range of 500 to 1000 nM.

Take `Cc1c[nH]nc1-c1ccc(Nc2cc(-c3ccc4cnn(C)c4c3)nc(N3CCOCC3)n2)cc1` [[6-(1-methyl(1H-indazol-6-yl))-2-morpholin-4-ylpyrimidin-4-yl][4-(4-methylpyrazolyl)phenyl]amine]: the IC50 was in the range of 1000 to 5000 nM.

In the case of `Cc1nn(C)c2cc(-c3cc(Nc4ccc(-c5nnc[nH]5)cc4)nc(N4CCOCC4)n3)ccc12` [(4-(4H-1,2,4-triazol-3-yl)phenyl)[6-(1,3-dimethyl(1H-indazol-6-yl))-2-morpholin-4-ylpyrimidin-4-yl]amine], the IC50 is under 500 nM.

Take `Cn1ncc2ccc(-c3cc(Nc4ccc(-c5ncc(C(F)(F)F)[nH]5)cc4)nc(N4CCOCC4)n3)cc21` [[6-(1-methyl(1H-indazol-6-yl))-2-morpholin-4-ylpyrimidin-4-yl]{4-[5-(trifluoromethyl)imidazol-2-yl]phenyl}amine]: the IC50 fell in the range of 500 to 1000 nM.

As to `CC(=O)Nc1ccc(Nc2cc(-c3ccc4ncn(C)c4c3)nc(N3CCOCC3)n2)cc1` [N-(4-{[6-(1-methylbenzimidazol-6-yl)-2-morpholin-4-ylpyrimidin-4-yl]amino}phenyl)acetamide], the IC50 was in the range of 500 to 1000 nM.

Values taken from patent US20190151312A1, “HEPARAN SULFATE BIOSYNTHESIS INHIBITORS FOR THE TREATMENT OF DISEASES” (BioMarin Pharmaceutical Inc., priority 2014, published 2019).
